A short description of series [1]: Anomeric stability in D2O solution followed by 1H-NMR. The format is physicochemical. Conditions: 10 mg in 700 μL D2O, room temperature; 1H-NMR recorded immediately and a day later. How it is done: 10 mg pure α-lactosamine hydrochloride was dissolved in 700 μL D2O, then 1H-NMR spectrum was recorded immediately. A second 1H-NMR spectra was recorded a day later, by which time the clean substance had already anomerized. On first spectrum (FIG. 3, above) at 5.26 ppm the H-1 and at 4.29 ppm the H-1′ can be seen. On the second spectrum (FIG. 3, below) next to the alpha anomer already the beta appears. At 4.78 ppm H-1-beta and at 2.85 ppm H-2-beta can be seen.

Molecule `Cl.N[C@@H]1[C@@H](O)[C@H](O[C@@H]2O[C@H](CO)[C@H](O)[C@H](O)[C@H]2O)[C@@H](CO)O[C@@H]1O` (hydrate or solvate) [α-lactosamine hydrochloride] displayed a melting point of 174 °C.
Take `Cl.N[C@@H]1[C@@H](O)[C@H](O[C@@H]2O[C@H](CO)[C@H](O)[C@H](O)[C@H]2O)[C@@H](CO)O[C@@H]1O` [α-lactosamine hydrochloride]: the “anomerization of the pure alpha anomer in solution (appearance of beta anomer)” value in series [1] is on record as “anomerizes at room temperature within one day”.

For orientation: melting point means the temperature of the solid-liquid transition.

For the origin of these results see US20140378679A1, “CRYSTALLINE CARBOHYDRATE DERIVATIVE” (GLYCOM A/S, priority 2008, published 2014).
